System: up to 32 different microorganisms
Assay: in vitro antibacterial activity (MIC), agar dilution on Brain Heart Infusion (BHI) agar with Steers replicator
Type: cell-based
Settings: unit assumed
Experimental: Representative compounds of the present invention were assayed in vitro for antibacterial activity as follows: Twelve petri dishes containing successive aqueous dilutions of the test compound mixed with 10 mL of sterilized Brain Heart Infusion (BHI) agar (Difco 0148-01-5) were prepared. Each plate was inoculated with 1:100 (or 1:10 for slow-growing strains, such as Micrococcus and Streptococcus) dilutions of up to 32 different microorganisms, using a Steers replicator block. The inoculated plates were incubated at 35°-37° C. for 20 to 24 hours. In addition, a control plate, using BHI agar containing no test compound, was prepared and incubated at the beginning and end of each test.
An additional plate containing a compound having known susceptibility patterns for the organisms being tested and belonging to the same antibiotic class as the test compound was also prepared and incubated as a further control, as well as to provide test-to-test comparability. Erythromycin A was used for this purpose.
After incubation, each plate was visually inspected. The minimum inhibitory concentration (MIC) was defined as the lowest concentration of drug yielding no growth, a slight haze, or sparsely isolated colonies on the inoculum spot as compared to the growth control.

Structure (SMILES)	MIC (organism code AA)	MIC (organism code BB)	MIC (organism code CC)	MIC (organism code DD)	MIC (organism code EE)	MIC (organism code FF)	MIC (organism code GG)	MIC (organism code HH)	MIC (organism code II)	MIC (organism code JJ)	MIC (organism code KK)	MIC (organism code MM)	MIC (organism code NN)	MIC (organism code OO)	MIC (organism code PP)	MIC (organism code QQ)	MIC (organism code RR)	MIC (organism code SS)	MIC (organism code TT)	MIC (organism code UU)	also measured
CCC1OC(=O)C(C)C(=O)C(C)C(OC2OC(C)CC(N(C)C)C2O)C(C)(OCc2cccc(I)c2)CC(C)C(=O)C(C)C2NC(=O)OC12C (centres unmarked) [Example 285, Compound of Formula (IX): L is CO, T is NH2, R is —CH2-(3-iodophenyl)]	3.1 µg/mL	3.1 µg/mL	> 100 µg/mL	3.1 µg/mL	3.1 µg/mL	3.1 µg/mL	> 100 µg/mL	3.1 µg/mL	0.39 µg/mL	0.2 µg/mL	0.2 µg/mL	100 µg/mL	0.78 µg/mL	0.39 µg/mL	0.39 µg/mL	> 100 µg/mL	12.5 µg/mL	> 100 µg/mL	> 100 µg/mL	6.2 µg/mL	MIC (organism code LL): 0.05 µg/mL; MIC (organism code VV): 1.56 µg/mL; MIC (organism code WW): > 128 µg/mL; MIC (organism code XX): 0.25 µg/mL; MIC (organism code YY): 0.25 µg/mL; MIC (organism code ZZ): 64 µg/mL; MIC (organism code ZZA): 1 µg/mL
CC[C@H]1OC(=O)[C@H](C)C(=O)[C@H](C)[C@@H](O[C@@H]2O[C@H](C)C[C@H](N(C)C)[C@H]2O)[C@@](C)(OCC=NOCc2cnc3ccccc3c2)C[C@@H](C)C(=O)[C@H](C)[C@H]2NC(=O)O[C@@]21C [Example 233, Compound of Formula (IX): L is CO, T is NH, R is —CH2CH═NOCH2(3-quinolyl)]	0.1 µg/mL	0.1 µg/mL	> 100 µg/mL	0.2 µg/mL	0.2 µg/mL	0.1 µg/mL	> 100 µg/mL	0.2 µg/mL	0.05 µg/mL	0.02 µg/mL	0.02 µg/mL	100 µg/mL	0.1 µg/mL	0.02 µg/mL	0.3 µg/mL	50 µg/mL	0.39 µg/mL	50 µg/mL	> 100 µg/mL	0.78 µg/mL	MIC (organism code LL): 0.02 µg/mL; MIC (organism code VV): 0.05 µg/mL; MIC (organism code WW): 2 µg/mL; MIC (organism code XX): 0.03 µg/mL; MIC (organism code YY): 0.03 µg/mL; MIC (organism code ZZ): 64 µg/mL; MIC (organism code ZZA): 0.25 µg/mL
CCC1OC(=O)C(C)C(=O)C(C)C(OC2OC(C)CC(N(C)C)C2O)C(C)(OCC=Cc2ccc(F)c3ccccc23)CC(C)C(=O)C(C)C2NC(=O)OC12C (centres unmarked) [Example 279, Compound of Formula (IX): L is CO, T is NH2, R is —CH2CH═CH-(4-fluoronaphthyl)]	0.39 µg/mL	0.39 µg/mL	50 µg/mL	0.78 µg/mL	0.39 µg/mL	0.39 µg/mL	50 µg/mL	0.39 µg/mL	0.2 µg/mL	0.05 µg/mL	0.02 µg/mL	25 µg/mL	0.39 µg/mL	0.05 µg/mL	0.39 µg/mL	> 100 µg/mL	1.56 µg/mL	> 100 µg/mL	> 100 µg/mL	0.78 µg/mL	MIC (organism code VV): 0.78 µg/mL; MIC (organism code WW): 8 µg/mL; MIC (organism code XX): 0.03 µg/mL; MIC (organism code YY): 0.03 µg/mL; MIC (organism code ZZ): 32 µg/mL; MIC (organism code ZZA): 0.5 µg/mL
CC[C@H]1OC(=O)[C@H](C)C(=O)[C@H](C)[C@@H](O[C@@H]2O[C@H](C)C[C@H](N(C)C)[C@H]2O)[C@@](C)(OCC=NOCc2ccnc3ccccc23)C[C@@H](C)C(=O)[C@H](C)[C@H]2NC(=O)O[C@@]21C [Example 231, Compound of Formula (IX): L is CO, T is NH, R is —CH2CH═NOCH2(4-quinolyl)]	0.1 µg/mL	0.1 µg/mL	> 100 µg/mL	0.1 µg/mL	0.1 µg/mL	0.05 µg/mL	> 100 µg/mL	0.2 µg/mL	0.02 µg/mL	0.02 µg/mL	0.02 µg/mL	100 µg/mL	0.1 µg/mL	0.02 µg/mL	0.1 µg/mL	100 µg/mL	0.39 µg/mL	100 µg/mL	> 100 µg/mL	0.78 µg/mL	MIC (organism code LL): 0.02 µg/mL; MIC (organism code VV): 0.05 µg/mL; MIC (organism code WW): 2 µg/mL; MIC (organism code XX): 0.03 µg/mL; MIC (organism code YY): 0.03 µg/mL; MIC (organism code ZZ): > 128 µg/mL; MIC (organism code ZZA): 0.5 µg/mL

Reference: patent publication USRE39591E1, “6-O-substituted ketolides having antibacterial activity” (Abbott Laboratories, priority 1996, dated 2007)
